This note sets out measurements from patent publication US7425631B2 (Amgen Inc., priority 2003, dated 2008).

The target of this assay is T1, human B1 receptor (Homo sapiens, UniProt P46663).
T1 construct: expressed in transfected cells
T1 sequence (P46663 1-353): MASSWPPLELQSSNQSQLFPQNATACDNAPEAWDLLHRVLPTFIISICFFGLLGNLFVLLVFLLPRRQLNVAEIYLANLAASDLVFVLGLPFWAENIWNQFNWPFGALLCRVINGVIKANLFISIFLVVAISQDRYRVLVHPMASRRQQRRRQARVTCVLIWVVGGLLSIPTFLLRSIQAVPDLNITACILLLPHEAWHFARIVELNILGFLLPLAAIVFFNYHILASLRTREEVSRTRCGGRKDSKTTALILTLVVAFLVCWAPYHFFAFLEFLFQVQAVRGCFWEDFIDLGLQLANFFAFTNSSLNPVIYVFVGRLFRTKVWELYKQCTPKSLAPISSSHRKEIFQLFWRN
Put plainly: In vitro assay of human B1 receptor function using calcium flux (aequorin luminescence). The class given is cell-based. The note with it: CHO D-/hB1/Aequorin cells, agonist 20 nM des-Arg10-Kallidin (EC80); read-out: binding IC50's to hB1 receptor function. On the procedure: Activation of the Gq linked B1 receptor results in an increase in intracellular calcium. […] Aequorin is a 21-kDa photoprotein that forms a bioluminescent complex when linked to the chromophore cofactor coelenterazine.
Following coelenterazine incubation, an automated flash-luminometer platform was used to dispense the B1 antagonist compounds (dissolved in DMSO and diluted with buffer to the desired concentration (final DMSO concentration <1% DMSO)) to the cell plate, a CCD camera situated underneath the cell plate took 12 images of the cell plate at 5 second intervals to determine if there was any agonist activity with the compounds. The hB1 agonist, des-Arg10-Kallidin, was added to the cell plate and another 12 images were recorded to determine the IC50 of the antagonist(s).
Consider `CC(C)(C)NCc1ccc2c(c1)CCC[C@H]2NC(=O)C[C@@H](NS(=O)(=O)c1ccc(Cl)c(Cl)c1)c1ccccc1` [bm, (3R)-3-(((3,4-dichlorophenyl)sulfonyl)amino)-N-((1R)-6-(((1,1-dimethylethyl)amino)methyl)-1,2,3,4-tetrahydro-1-naphthalenyl)-3-phenylpropanamide], for which the IC50 is < 10 nM. For the molecule `O=C(CC(NS(=O)(=O)c1ccc(Cl)c(Cl)c1)c1ccc(F)cc1)NC1CCOc2cc(CN3CCCCC3)ccc21` (stereo not drawn) [by, 3-(3,4-Dichloro-benzenesulfonylamino)-3-(4-fluoro-phenyl)-N-(7-piperidin-1-ylmethyl-chroman-4-yl)-propionamide], the half-maximal inhibitory concentration (IC50) was < 10 nM. In the case of `O=C(C[C@@H](NS(=O)(=O)c1ccc(Cl)c(Cl)c1)c1ccc(F)cc1)N[C@@H]1CCCc2cc(CN3CCCCC3)ccc21` [bz, 3-(3,4-Dichloro-benzenesulfonylamino)-3-(4-fluoro-phenyl)-N-(6-piperidin-1-ylmethyl-1,2,3,4-tetrahydro-naphthalen-1-yl)-propionamide], the IC50 is < 10 nM.

`COCCNCc1ccc2c(c1)OCC[C@H]2NC(=O)C[C@@H](NS(=O)(=O)c1ccc(Cl)c(Cl)c1)c1ccc(F)cc1` [ce, 3-(3,4-Dichloro-benzenesulfonylamino)-3-(4-fluoro-phenyl)-N-{7-[(2-methoxy-ethylamino)-methyl]-chroman-4-yl}-propionamide]: the IC50 was < 10 nM. On to `CC(C)(C)NCc1ccc2c(c1)CCC[C@H]2NC(=O)C[C@@H](NS(=O)(=O)c1ccc(Cl)c(Cl)c1)c1ccc(F)cc1` [cj, N-[6-(tert-Butylamino-methyl)-1,2,3,4-tetrahydro-naphthalen-1-yl]-3-(3,4-dichloro-benzenesulfonylamino)-3-(4-fluoro-phenyl)-propionamide], for which the IC50 was < 10 nM.

Regarding `CC(C)CNCc1ccc2c(c1)OCC[C@H]2NC(=O)C[C@@H](NS(=O)(=O)c1cccc(C(F)(F)F)c1)c1ccc(F)cc1` [cl, 3-(4-Fluoro-phenyl)-N-[7-(isobutylamino-methyl)-chroman-4-yl]-3-(3-trifluoromethyl-benzenesulfonylamino)-propionamide], the IC50 is < 10 nM. Consider `CC(C)(C)NCc1ccc2c(c1)OCC[C@H]2NC(=O)C[C@@H](NS(=O)(=O)c1cccc(C(F)(F)F)c1)c1ccc(F)cc1` [co, N-[7-(tert-Butylamino-methyl)-chroman-4-yl]-3-(4-fluoro-phenyl)-3-(3-trifluoromethyl-benzenesulfonylamino)-propionamide], for which the IC50 was < 10 nM. With `O=C(C[C@@H](NS(=O)(=O)c1cccc(C(F)(F)F)c1)c1ccc(F)cc1)N[C@@H]1CCOc2cc(CN3CCCC3)ccc21` [ct, 3-(4-Fluoro-phenyl)-N-(7-pyrrolidin-1-ylmethyl-chroman-4-yl)-3-(3-trifluoromethyl-benzenesulfonylamino)-propionamide] the figure was < 10 nM. In the case of `CC(C)(C)NCc1ccc2c(c1)CCC[C@H]2NC(=O)C[C@@H](NS(=O)(=O)c1cccc(C(F)(F)F)c1)c1cccc([N+](=O)[O-])c1` [cx, N-[6-(tert-Butylamino-methyl)-1,2,3,4-tetrahydro-naphthalen-1-yl]-3-(3-nitro-phenyl)-3-(3-trifluoromethyl-benzenesulfonylamino)-propionamide], the IC50 is < 10 nM. `CC(C)(C)NCc1ccc2c(c1)CCC[C@H]2NC(=O)C[C@@H](NS(=O)(=O)c1cccc(C(F)(F)F)c1)c1cccc(C#N)c1` [cy, N-[6-(tert-Butylamino-methyl)-1,2,3,4-tetrahydro-naphthalen-1-yl]-3-(3-cyano-phenyl)-3-(3-trifluoromethyl-benzenesulfonylamino)-propionamide]: the IC50 is < 10 nM.

As for `CC(C)(C)c1ccc(S(=O)(=O)N[C@H](CC(=O)N[C@@H]2CCCc3cc(CNC4CCC4)ccc32)c2ccc(F)cc2)cc1` [de, 3-(4-tert-Butyl-benzenesulfonylamino)-N-(6-cyclobutylaminomethyl-1,2,3,4-tetrahydro-naphthalen-1-yl)-3-(4-fluoro-phenyl)-propionamide], the IC50 is < 10 nM. Consider `CC(C)(C)c1ccc(S(=O)(=O)N[C@H](CC(=O)N[C@@H]2CCCc3cc(CN4CCCCC4)ccc32)c2ccc(F)cc2)cc1` [dh, 3-(4-tert-Butyl-benzenesulfonylamino)-3-(4-fluoro-phenyl)-N-(6-piperidin-1-ylmethyl-1,2,3,4-tetrahydro-naphthalen-1-yl)-propionamide], for which the IC50 was < 10 nM. For the molecule `CC(C)CNCc1ccc2c(c1)CCC[C@H]2NC(=O)C[C@@H](NS(=O)(=O)c1ccc(C(C)(C)C)cc1)c1ccc(F)cc1` [dj, 3-(4-tert-Butyl-benzenesulfonylamino)-3-(4-fluoro-phenyl)-N-[6-(isobutylamino-methyl)-1,2,3,4-tetrahydro-naphthalen-1-yl]-propionamide], the IC50 is < 10 nM. Regarding `CC(C)(C)NCc1ccc2c(c1)CCC[C@H]2NC(=O)C[C@@H](NS(=O)(=O)c1ccc(C(C)(C)C)cc1)c1ccc(F)cc1` [do, N-[6-(tert-Butylamino-methyl)-1,2,3,4-tetrahydro-naphthalen-1-yl]-3-(4-tert-butyl-benzenesulfonylamino)-3-(4-fluoro-phenyl)-propionamide], the IC50 was < 10 nM.

On to `O=C(C[C@@H](NS(=O)(=O)c1cccc(C(F)(F)F)c1)c1cccc(F)c1)N[C@@H]1CCCc2cc(CN3CCCCC3)ccc21` [dq, 3-(3-Fluoro-phenyl)-N-(6-piperidin-1-ylmethyl-1,2,3,4-tetrahydro-naphthalen-1-yl)-3-(3-trifluoromethyl-benzenesulfonylamino)-propionamide], for which the IC50 is < 10 nM. On to `O=C(C[C@@H](NS(=O)(=O)c1ccc(Cl)c(Cl)c1)c1cccc(F)c1)N[C@@H]1CCCc2cc(CNC3CCCC3)ccc21` [dx, N-(6-Cyclopentylaminomethyl-1,2,3,4-tetrahydro-naphthalen-1-yl)-3-(3,4-dichloro-benzenesulfonylamino)-3-(3-fluoro-phenyl)-propionamide], for which the half-maximal inhibitory concentration (IC50) was < 10 nM.

Turning to `O=C(C[C@@H](NS(=O)(=O)c1cccc(C(F)(F)F)c1)c1ccc(F)cc1)N[C@@H]1CCCc2cc(CN3CCC(F)CC3)ccc21` [eb, 3-(4-Fluoro-phenyl)-N-[6-(4-fluoro-piperidin-1-ylmethyl)-1,2,3,4-tetrahydro-naphthalen-1-yl]-3-(3-trifluoromethyl-benzenesulfonylamino)-propionamide], the IC50 is < 10 nM.

For the molecule `O=C(C[C@@H](NS(=O)(=O)c1ccc(Cl)c(Cl)c1)c1cccc(Cl)c1)N[C@@H]1CCCc2cc(CN3CCCCC3)ccc21` [ed, 3-(3-Chloro-phenyl)-3-(3,4-dichloro-benzenesulfonylamino)-N-(6-piperidin-1-ylmethyl-1,2,3,4-tetrahydro-naphthalen-1-yl)-propionamide], the IC50 was < 10 nM. For `CC(C)(C)NCc1ccc2c(c1)OCC[C@H]2NC(=O)C[C@@H](NS(=O)(=O)c1cc(C(F)(F)F)ccc1Cl)c1ccc(F)cc1` [ej, N-[7-(tert-Butylamino-methyl)-chroman-4-yl]-3-(2-chloro-5-trifluoromethyl-benzenesulfonylamino)-3-(4-fluoro-phenyl)-propionamide], the IC50 was < 10 nM. For `CC(C)(C)NCc1ccc2c(c1)CCC[C@H]2NC(=O)C[C@H](NS(=O)(=O)c1cccc(C(F)(F)F)c1)c1ccc([N+](=O)[O-])cc1` [em, N-[6-(tert-Butylamino-methyl)-1,2,3,4-tetrahydro-naphthalen-1-yl]-3-(4-nitro-phenyl)-3-(3-trifluoromethyl-benzenesulfonylamino)-propionamide], the IC50 was < 10 nM. With `O=C(CC(NS(=O)(=O)c1cccc(C(F)(F)F)c1)c1ccc(Cl)cc1)N[C@@H]1CCCc2cc(CN3CCCCC3)ccc21` (stereo partly drawn) [ex, 3-(4-Chloro-phenyl)-N-(6-piperidin-1-ylmethyl-1,2,3,4-tetrahydro-naphthalen-1-yl)-3-(3-trifluoromethyl-benzenesulfonylamino)-propionamide] the figure was < 10 nM; with `O=C(CC(NS(=O)(=O)c1cccc(C(F)(F)F)c1)c1cc(Cl)cc(Cl)c1)N[C@@H]1CCCc2cc(CN3CCCCC3)ccc21` (stereo partly drawn) [fb, 3-(3,5-Dichloro-phenyl)-N-(6-piperidin-1-ylmethyl-1,2,3,4-tetrahydro-naphthalen-1-yl)-3-(3-trifluoromethyl-benzenesulfonylamino)-propionamide], < 10 nM. For the molecule `O=C(CC(NS(=O)(=O)c1cccc(C(F)(F)F)c1)c1ccccc1F)N[C@@H]1CCCc2cc(CN3CCCCC3)ccc21` (stereo partly drawn) [fg, 3-(2-Fluoro-phenyl)-N-(6-piperidin-1-ylmethyl-1,2,3,4-tetrahydro-naphthalen-1-yl)-3-(3-trifluoromethyl-benzenesulfonylamino)-propionamide], the IC50 was < 10 nM. With `O=C(CC(NS(=O)(=O)c1cccc(C(F)(F)F)c1)c1ccc(F)cc1)N[C@@H]1CCCc2cc(CN3CCCCC3)ccc21` (stereo partly drawn) [fh, 3-(4-Fluoro-phenyl)-N-(6-piperidin-1-ylmethyl-1,2,3,4-tetrahydro-naphthalen-1-yl)-3-(3-trifluoromethyl-benzenesulfonylamino)-propionamide], the IC50 is < 10 nM.
